# In patent US10233182B2, “Substituted spirocyclic inhibitors of autotaxin” (X-Rx, Inc., priority 2014, dated 2019):
# pIC50: −log10 of the molar value.
# Molecular target: Autotaxin (Homo sapiens (Human), UniProt Q13822)
# Test: Autotaxin LPC Cascade Assay
# Assay type: biochemical
# Settings: Autotaxin 5 nM, LPC 100 μM, choline oxidase/HRP/Ampliflu Red fluorescence read-out, 2% DMSO, RT; read-out: IC50 ATX Activity
# Method in brief: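 Choline liberated from LPC by autotaxin during 1 h, after a 10-min RT compound preincubation, was converted through choline oxidase/HRP to a fluorescent Ampliflu Red product.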
row,SMILES,pIC50
1,"CN1C(=O)N(c2ccc3[nH]ncc3c2)C2(CCN(C(=O)[C@H](NC(=O)c3cc(C(F)(F)F)ccc3F)C3CCCC3)CC2)C1=O [Example 57, (R)—N-(2-(1-(1H-Indazol-5-yl)-3-methyl-2,4-dioxo-1,3,8-triazaspiro[4.5]decan-8-yl)-1-cyclopentyl-2-oxoethyl)-2-fluoro-5-(trifluoromethyl)benzamide]",> 6.30
2,"CN1C(=O)N(c2ccc3[nH]ncc3c2)C2(CCN(C(=O)[C@H](NC(=O)c3cc(C(F)(F)F)ccc3F)C3CCC3)CC2)C1=O [Example 58, (R)—N-(2-(1-(1H-Indazol-5-yl)-3-methyl-2,4-dioxo-1,3,8-triazaspiro[4.5]decan-8-yl)-1-cyclobutyl-2-oxoethyl)-2-fluoro-5-(trifluoromethyl)benzamide]",> 6.30
3,"CC(C)[C@@H](NC(=O)c1cccc(C(F)(F)F)c1)C(=O)N1CCC2(CC1)C(=O)N(C)C(=O)N2c1ccc2[nH]ncc2c1 [Example 59, (R)—N-(1-(1-(1H-Indazol-5-yl)-3-methyl-2,4-dioxo-1,3,8-triazaspiro[4.5]decan-8-yl)-3-methyl-1-oxobutan-2-yl)-3-(trifluoromethyl)benzamide]",> 6.30
4,"CC(C)[C@@H](NC(=O)c1cc(Cl)cc(C(F)(F)F)c1)C(=O)N1CCC2(CC1)C(=O)N(C)C(=O)N2c1ccc2[nH]ncc2c1 [Example 60, (R)—N-(1-(1-(1H-Indazol-5-yl)-3-methyl-2,4-dioxo-1,3,8-triazaspiro[4.5]decan-8-yl)-3-methyl-1-oxobutan-2-yl)-3-chloro-5-(trifluoromethyl)benzamide]",> 6.30
5,"Cc1ccc(C(F)(F)F)cc1C(=O)N[C@@H](C(=O)N1CCC2(CC1)C(=O)N(C)C(=O)N2c1ccc2[nH]ncc2c1)C(C)C [Example 61, (R)—N-(1-(1-(1H-Indazol-5-yl)-3-methyl-2,4-dioxo-1,3,8-triazaspiro[4.5]decan-8-yl)-3-methyl-1-oxobutan-2-yl)-2-methyl-5-(trifluoromethyl)benzamide]",≤ 6.00
6,"CC(C)[C@@H](NC(=O)c1cc(OC(F)(F)F)ccc1F)C(=O)N1CCC2(CC1)C(=O)N(C)C(=O)N2c1ccc2[nH]ncc2c1 [Example 62, (R)—N-(1-(1-(1H-Indazol-5-yl)-3-methyl-2,4-dioxo-1,3,8-triazaspiro[4.5]decan-8-yl)-3-methyl-1-oxobutan-2-yl)-2-fluoro-5-(trifluoromethoxy)benzamide]",> 6.30
7,"COc1ccc(F)c(C(=O)N[C@@H](C(=O)N2CCC3(CC2)C(=O)N(C)C(=O)N3c2ccc3[nH]ncc3c2)C(C)C)c1 [Example 63, (R)—N-(1-(1-(1H-Indazol-5-yl)-3-methyl-2,4-dioxo-1,3,8-triazaspiro[4.5]decan-8-yl)-3-methyl-1-oxobutan-2-yl)-2-fluoro-5-methoxybenzamide]",6.00 to 6.30
8,"CC(C)[C@@H](NC(=O)c1cc(OC(F)F)ccc1F)C(=O)N1CCC2(CC1)C(=O)N(C)C(=O)N2c1ccc2[nH]ncc2c1 [Example 64, (R)—N-(1-(1-(1H-Indazol-5-yl)-3-methyl-2,4-dioxo-1,3,8-triazaspiro[4.5]decan-8-yl)-3-methyl-1-oxobutan-2-yl)-5-(difluoromethoxy)-2-fluorobenzamide]",> 6.30
9,"CC(C)[C@@H](NC(=O)c1cc(Cl)ccc1Cl)C(=O)N1CCC2(CC1)C(=O)N(C)C(=O)N2c1ccc2[nH]ncc2c1 [Example 65, (R)—N-(1-(1-(1H-Indazol-5-yl)-3-methyl-2,4-dioxo-1,3,8-triazaspiro[4.5]decan-8-yl)-3-methyl-1-oxobutan-2-yl)-2,5-dichlorobenzamide]",≤ 6.00
10,"CC(C)[C@@H](NC(=O)c1cc(F)ccc1F)C(=O)N1CCC2(CC1)C(=O)N(C)C(=O)N2c1ccc2[nH]ncc2c1 [Example 66, (R)—N-(1-(1-(1H-Indazol-5-yl)-3-methyl-2,4-dioxo-1,3,8-triazaspiro[4.5]decan-8-yl)-3-methyl-1-oxobutan-2-yl)-2,5-difluorobenzamide]",6.00 to 6.30
11,"CC(C)[C@@H](NC(=O)C12CC3CC(CC(C3)C1)C2)C(=O)N1CCC2(CC1)C(=O)N(C)C(=O)N2c1ccc2[nH]ncc2c1 [Example 67, (R)—N-(1-(1-(1H-Indazol-5-yl)-3-methyl-2,4-dioxo-1,3,8-triazaspiro[4.5]decan-8-yl)-3-methyl-1-oxobutan-2-yl)-1-admantanecarboxly amide]",≤ 6.00
12,"CC(C)[C@@H](NC(=O)c1cc(C(F)(F)F)ccc1Cl)C(=O)N1CCC2(CC1)C(=O)N(C)C(=O)N2c1ccc2[nH]ncc2c1 [Example 68, (R)—N-(1-(1-(1H-Indazol-5-yl)-3-methyl-2,4-dioxo-1,3,8-triazaspiro[4.5]decan-8-yl)-3-methyl-1-oxobutan-2-yl)-2-chloro-5-(trifluoromethyl)benzamide]",≤ 6.00
13,"CC(C)[C@H](NC(=O)c1cc(C(F)(F)F)ccc1F)C(=O)N1CCC2(CC1)C(=O)N(C)C(=O)N2c1ccc2[nH]ncc2c1 [Example 69, (S)—N-(1-(1-(1H-Indazol-5-yl)-3-methyl-2,4-dioxo-1,3,8-triazaspiro[4.5]decan-8-yl)-3-methyl-1-oxobutan-2-yl)-2-fluoro-5-(trifluoromethyl)benzamide]",≤ 6.00
14,"CN1C(=O)N(c2ccc3[nH]ncc3c2)C2(CCN(C(=O)CNC(=O)c3cc(C(F)(F)F)ccc3F)CC2)C1=O [Example 70, N-(2-(1-(1H-Indazol-5-yl)-3-methyl-2,4-dioxo-1,3,8-triazaspiro[4.5]decan-8-yl)-2-oxoethyl)-2-fluoro-5-(trifluoromethyl)benzamide]",≤ 6.00
15,"CN1C(=O)N(c2ccc3[nH]ncc3c2)C2(CCN(C(=O)C3(NC(=O)c4cc(C(F)(F)F)ccc4F)CC3)CC2)C1=O [Example 71, N-(1-(1-(1H-Indazol-5-yl)-3-methyl-2,4-dioxo-1,3,8-triazaspiro[4.5]decane-8-carbonyl)cyclopropyl)-2-fluoro-5-(trifluoromethyl)benzamide]",≤ 6.00
16,"C[C@@H](NC(=O)c1cc(C(F)(F)F)ccc1F)C(=O)N1CCC2(CC1)C(=O)N(C)C(=O)N2c1ccc2[nH]ncc2c1 [Example 72, (R)—N-(1-(1-(1H-Indazol-5-yl)-3-methyl-2,4-dioxo-1,3,8-triazaspiro[4.5]decan-8-yl)-1-oxopropan-2-yl)-2-fluoro-5-(trifluoromethyl)benzamide]",≤ 6.00
17,"CN1C(=O)N(c2ccc3[nH]ncc3c2)C2(CCN(C(=O)C(C)(C)NC(=O)c3cc(C(F)(F)F)ccc3F)CC2)C1=O [Example 74, N-(1-(1-(1H-Indazol-5-yl)-3-methyl-2,4-dioxo-1,3,8-triazaspiro[4.5]decan-8-yl)-2-methyl-1-oxopropan-2-yl)-2-fluoro-5-(trifluoromethyl)benzamide]",≤ 6.00
18,"CC(C)[C@@H](NC(=O)c1cc(C(F)(F)F)ccc1F)C(=O)N1CCC2(CC1)C(=O)N(C)C(=O)N2CC1CC1 [Example 75, (R)—N-(1-(1-(Cyclopropylmethyl)-3-methyl-2,4-dioxo-1,3,8-triazaspiro[4.5]decan-8-yl)-3-methyl-1-oxobutan-2-yl)-2-fluoro-5-(trifluoromethyl)benzamide]",≤ 6.00
19,"CC(C)[C@@H](NC(=O)c1cc(C(F)(F)F)ccc1F)C(=O)N1CCC2(CC1)C(=O)N(C)C(=O)N2C1CC1 [Example 76, (R)—N-(1-(1-Cyclopropyl-3-methyl-2,4-dioxo-1,3,8-triazaspiro[4.5]decan-8-yl)-3-methyl-1-oxobutan-2-yl)-2-fluoro-5-(trifluoromethyl)benzamide]",6.00 to 6.30
